The values that follow come from patent US12662479B2 (Foghorn Therapeutics Inc., priority 2020, dated 2026).

A value given as a limit tells only on which side of the number the result lay.

Assay [1] concerns the target T1, HiBit-BRM fusion protein (Homo sapiens, UniProt P51531).
T1 construct: expressed in transfected cells
Kind of assay: HiBiT-BRM cell-based degradation assay (Nano-Glo HiBiT Lytic Detection, 24 h). The conditions noted are these: HeLa cells expressing HiBiT-BRM; for DC50: read-out: BRM HiBit Degradation IC50; for BRM HiBit Degradation Maximum measured: top dose 30 μM. In outline: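 Residual HiBiT-BRM in a stable HeLa line was measured by Nano-Glo lytic luminescence after 24 h compound exposure (top final dose 30 μM, 3-fold, 10 points, duplicate). Values are % degradation, scaled between DMSO-treated cells and cells given 2 μM of a known BRM/BRG1 degrader.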
Background: With HiBiT, luminescence reflects the tagged protein that the partner subunit can reach.

The target in assay [2] is T2, HiBit-BRG1 fusion protein (Homo sapiens, UniProt P51532).
T2 construct: expressed in transfected cells
Kind of assay: HiBiT-BRG1 cell-based degradation assay (Nano-Glo HiBiT Lytic Detection, 24 h). The following applies: HeLa cells expressing HiBit-BRG1 and LgBit; for DC50: read-out: BRG1 HiBit Degradation IC50; for Dmax: HeLa, top dose 30 μM, read-out: BRG1 HiBit Degradation Maximum measured. In outline: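 Degradation is scaled from DMSO-treated cells (0%) to cells given 2 μM of a known BRM/BRG1 degrader (100%). HeLa cells stably carrying HiBiT-BRG1 plus LgBiT (5000/well) were lysed with Nano-Glo HiBiT detection reagent, shaken 10 min at RT, and luminescence read.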

T2 sequence (P51532 whole entry, the tested form may be a part): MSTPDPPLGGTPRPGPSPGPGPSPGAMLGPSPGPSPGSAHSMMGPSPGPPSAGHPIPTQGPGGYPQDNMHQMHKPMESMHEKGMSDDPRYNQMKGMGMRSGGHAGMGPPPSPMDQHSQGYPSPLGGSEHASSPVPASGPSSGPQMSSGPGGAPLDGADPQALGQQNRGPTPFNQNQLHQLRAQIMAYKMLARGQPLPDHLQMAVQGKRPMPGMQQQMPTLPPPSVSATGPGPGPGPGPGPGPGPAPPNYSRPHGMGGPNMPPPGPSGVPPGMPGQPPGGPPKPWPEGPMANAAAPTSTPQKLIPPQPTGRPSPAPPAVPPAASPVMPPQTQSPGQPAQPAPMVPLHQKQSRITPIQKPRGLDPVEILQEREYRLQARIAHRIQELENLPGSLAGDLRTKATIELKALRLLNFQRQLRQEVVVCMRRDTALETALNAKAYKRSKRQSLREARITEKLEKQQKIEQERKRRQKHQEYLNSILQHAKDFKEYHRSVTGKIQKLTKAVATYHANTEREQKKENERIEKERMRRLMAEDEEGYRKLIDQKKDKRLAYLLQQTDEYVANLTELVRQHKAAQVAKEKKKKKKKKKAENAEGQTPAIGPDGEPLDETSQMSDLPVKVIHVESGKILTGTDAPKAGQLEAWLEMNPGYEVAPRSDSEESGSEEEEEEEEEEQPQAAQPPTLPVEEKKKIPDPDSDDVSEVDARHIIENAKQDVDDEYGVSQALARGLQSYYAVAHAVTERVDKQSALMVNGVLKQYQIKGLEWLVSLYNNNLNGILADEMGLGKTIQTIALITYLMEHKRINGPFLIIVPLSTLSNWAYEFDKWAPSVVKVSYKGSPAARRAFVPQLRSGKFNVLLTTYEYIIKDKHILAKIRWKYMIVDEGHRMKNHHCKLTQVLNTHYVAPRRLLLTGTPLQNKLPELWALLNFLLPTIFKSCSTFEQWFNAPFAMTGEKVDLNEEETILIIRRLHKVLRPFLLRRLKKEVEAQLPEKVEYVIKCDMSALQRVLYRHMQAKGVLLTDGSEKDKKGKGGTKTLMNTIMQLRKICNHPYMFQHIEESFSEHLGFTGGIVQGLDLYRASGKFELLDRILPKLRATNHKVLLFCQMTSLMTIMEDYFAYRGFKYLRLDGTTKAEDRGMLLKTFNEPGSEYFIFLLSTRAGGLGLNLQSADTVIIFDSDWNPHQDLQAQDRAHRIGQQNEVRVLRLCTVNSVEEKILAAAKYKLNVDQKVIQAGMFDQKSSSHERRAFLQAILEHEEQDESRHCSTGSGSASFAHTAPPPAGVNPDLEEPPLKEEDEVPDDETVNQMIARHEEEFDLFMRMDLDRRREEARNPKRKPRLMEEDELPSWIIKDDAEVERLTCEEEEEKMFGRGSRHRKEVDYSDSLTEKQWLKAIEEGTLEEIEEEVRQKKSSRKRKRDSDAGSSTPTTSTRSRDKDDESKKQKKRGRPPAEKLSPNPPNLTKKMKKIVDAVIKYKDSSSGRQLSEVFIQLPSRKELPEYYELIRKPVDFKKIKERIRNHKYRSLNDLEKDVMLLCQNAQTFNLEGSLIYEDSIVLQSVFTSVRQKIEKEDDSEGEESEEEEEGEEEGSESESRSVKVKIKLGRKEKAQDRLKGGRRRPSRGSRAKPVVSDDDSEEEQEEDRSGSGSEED
T1 sequence (P51531 whole entry, the tested form may be a part): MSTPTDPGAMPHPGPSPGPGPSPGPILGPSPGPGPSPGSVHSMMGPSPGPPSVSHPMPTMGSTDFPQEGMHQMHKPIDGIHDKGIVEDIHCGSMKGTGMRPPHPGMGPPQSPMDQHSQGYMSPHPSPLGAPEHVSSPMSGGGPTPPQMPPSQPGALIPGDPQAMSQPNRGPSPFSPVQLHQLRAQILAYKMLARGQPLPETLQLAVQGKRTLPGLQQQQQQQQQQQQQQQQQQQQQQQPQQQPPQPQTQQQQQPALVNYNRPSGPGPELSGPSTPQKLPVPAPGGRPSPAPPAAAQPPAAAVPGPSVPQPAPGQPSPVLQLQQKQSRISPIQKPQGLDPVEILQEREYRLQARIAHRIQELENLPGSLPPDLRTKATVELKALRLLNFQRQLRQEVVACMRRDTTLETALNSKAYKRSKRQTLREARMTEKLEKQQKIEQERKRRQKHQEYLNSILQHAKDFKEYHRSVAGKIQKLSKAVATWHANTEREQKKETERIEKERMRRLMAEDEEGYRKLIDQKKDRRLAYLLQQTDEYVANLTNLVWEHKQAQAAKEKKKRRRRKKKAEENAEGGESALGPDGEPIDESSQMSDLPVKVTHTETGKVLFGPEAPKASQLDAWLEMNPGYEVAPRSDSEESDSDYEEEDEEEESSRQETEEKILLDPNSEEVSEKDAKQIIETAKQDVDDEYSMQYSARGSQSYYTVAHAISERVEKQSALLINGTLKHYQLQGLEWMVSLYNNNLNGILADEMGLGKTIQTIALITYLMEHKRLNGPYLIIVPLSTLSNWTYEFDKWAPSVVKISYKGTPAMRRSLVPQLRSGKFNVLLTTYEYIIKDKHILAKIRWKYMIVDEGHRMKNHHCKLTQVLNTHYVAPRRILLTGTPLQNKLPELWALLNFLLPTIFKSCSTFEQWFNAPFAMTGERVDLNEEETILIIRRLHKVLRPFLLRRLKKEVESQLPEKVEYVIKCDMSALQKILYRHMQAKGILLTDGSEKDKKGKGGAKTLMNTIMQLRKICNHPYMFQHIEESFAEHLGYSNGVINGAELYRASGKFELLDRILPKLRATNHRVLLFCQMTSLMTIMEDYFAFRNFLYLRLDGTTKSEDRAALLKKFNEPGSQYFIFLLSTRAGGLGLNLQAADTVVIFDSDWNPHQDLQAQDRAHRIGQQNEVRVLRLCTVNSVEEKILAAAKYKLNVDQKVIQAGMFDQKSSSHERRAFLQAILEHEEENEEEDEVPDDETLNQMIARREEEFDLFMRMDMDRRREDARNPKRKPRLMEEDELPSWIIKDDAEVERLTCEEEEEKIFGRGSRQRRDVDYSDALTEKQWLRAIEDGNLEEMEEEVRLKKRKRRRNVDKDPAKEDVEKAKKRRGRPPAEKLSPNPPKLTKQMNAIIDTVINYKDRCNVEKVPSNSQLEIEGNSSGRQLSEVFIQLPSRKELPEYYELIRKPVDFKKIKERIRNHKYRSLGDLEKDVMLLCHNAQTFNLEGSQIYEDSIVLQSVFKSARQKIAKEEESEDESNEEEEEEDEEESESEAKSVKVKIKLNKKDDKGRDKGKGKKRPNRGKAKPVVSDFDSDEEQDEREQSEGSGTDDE

Take `Cc1ncsc1-c1ccc(CNC(=O)[C@@H]2C[C@@H](O)CN2C(=O)[C@@H](NC(=O)CCCCCCCCCCCCCC(=O)NCc2cccc(-c3cccc(-c4csc(NC(=O)CNC(=O)c5ccn(S(C)(=O)=O)c5)n4)c3)c2)C(C)(C)C)cc1` [Compound 126, N′-[(1S)-1-[(2S,4R)-4-hydroxy-2-[[4-(4-methylthiazol-5-yl)phenyl]methylcarbamoyl]pyrrolidine-1-carbonyl]-2,2-dimethyl-propyl]-N-[[3-[3-[2-[[2-[(1-methylsulfonylpyrrole-3-carbonyl)amino]acetyl]amino]thiazol-4-yl]phenyl]phenyl]methyl]pentadecanediamide]: in assay [1], the DC50 was 0.1 to 1 µM; the “BRM HiBit Degradation Maximum measured” value was “B (‘B’ = Maximum degradation ≥50% and ≤75%)”. Besides, in assay [2], the DC50 was 0.1 to 1 µM and the Dmax is 50 to 75%.
Regarding `CS(=O)(=O)n1ccc(C(=O)NCC(=O)Nc2nc(-c3cccc(-c4ccnc(C5(C(=O)NCCOCCOCCNC(=O)COc6cccc7c6C(=O)N(C6CCC(=O)NC6=O)C7=O)CC5)c4)c3)cs2)c1` (centres unmarked) [Compound 128], in assay [1], the DC50 was more than 10 µM and the “BRM HiBit Degradation Maximum measured” value is “C (‘C’ = Maximum degradation <50%)”. Besides, in assay [2], the DC50 was more than 10 µM and the Dmax is less than 50%.
Regarding `CN1C(=O)CCC(N2C(=O)c3cccc(OCC(=O)NCCCCCCCCNC(=O)C4(c5cc(-c6cccc(-c7csc(NC(=O)CNC(=O)c8ccn(S(C)(=O)=O)c8)n7)c6)ccn5)CC4)c3C2=O)C1=O` (centres unmarked) [Compound 129, N-[2-[[4-[3-[2-[1-[8-[[2-[2-(1-methyl-2,6-dioxo-3-piperidyl)-1,3-dioxo-isoindolin-4-yl]oxyacetyl]amino]octylcarbamoyl]cyclopropyl]-4-pyridyl]phenyl]thiazol-2-yl]amino]-2-oxo-ethyl]-1-methylsulfonyl-pyrrole-3-carboxamide], in assay [1], the DC50 was more than 10 µM and the “BRM HiBit Degradation Maximum measured” value is on record as “C (‘C’ = Maximum degradation <50%)”. Besides, in assay [2], the DC50 was more than 10 µM and the Dmax is less than 50%.
As for `Cc1cc(C(=O)NCC(=O)Nc2nc(-c3cccc(-c4ccnc(N(C)CC(=O)N5CCC(C6CCN(C(=O)COc7cccc8c7C(=O)N(C7CCC(=O)NC7=O)C8=O)CC6)CC5)c4)c3)cs2)cn1S(C)(=O)=O` (centres unmarked) [Compound 130, N-[2-[[4-[3-[2-[[2-[4-[1-[2-[2-(2,6-dioxo-3-piperidyl)-1,3-dioxo-isoindolin-4-yl]oxyacetyl]-4-piperidyl]-1-piperidyl]-2-oxo-ethyl]-methyl-amino]-4-pyridyl]phenyl]thiazol-2-yl]amino]-2-oxo-ethyl]-5-methyl-1-methylsulfonyl-pyrrole-3-carboxamide], in assay [1], the DC50 is more than 10 µM and the “BRM HiBit Degradation Maximum measured” value is “C (‘C’ = Maximum degradation <50%)”. Besides, in assay [2], the DC50 was more than 10 µM and the Dmax is less than 50%.
With `Cc1cc(C(=O)NCC(=O)Nc2nc(-c3cccc(-c4ccnc(N(C)CC(=O)NCCCCCCCCNC(=O)COc5cccc6c5C(=O)N(C5CCC(=O)NC5=O)C6=O)c4)c3)cs2)cn1S(C)(=O)=O` (centres unmarked) [Compound 131, N-(2-((4-(3-(2-((2-((8-(2-((2-(2,6-dioxopiperidin-3-yl)-1,3-dioxoisoindolin-4-yl)oxy)acetamido)octyl)amino)-2-oxoethyl)(methyl)amino)pyridin-4-yl)phenyl)thiazol-2-yl)amino)-2-oxoethyl)-5-methyl-1-(methylsulfonyl)-1H-pyrrole-3-carboxamide], in assay [1], the DC50 is more than 10 µM and the “BRM HiBit Degradation Maximum measured” value is recorded as “C (‘C’ = Maximum degradation <50%)”. Besides, in assay [2], the DC50 is more than 10 µM and the Dmax was less than 50%.
